Reference: ChEMBL document CHEMBL1221200, “Diarylquinolines target subunit c of mycobacterial ATP synthase” (Nat Chem Biol, 2007)
In brackets after ≈: the same amount, converted by molar mass. Activity calls are given as the source filed them. No cut-off for these calls is given here.

Key:
[1] = target: ATP synthase subunit c (Mycobacterium tuberculosis (strain CDC 1551 / Oshkosh)) (UniProt P9WPS0); assay: Inhibition of Mycobacterium tuberculosis ATP synthase subunit c-mediated ATP synthesis after […] by luminometry
Sequence of ATP synthase subunit c (Mycobacterium tuberculosis (strain CDC 1551 / Oshkosh)) (P9WPS0 whole entry): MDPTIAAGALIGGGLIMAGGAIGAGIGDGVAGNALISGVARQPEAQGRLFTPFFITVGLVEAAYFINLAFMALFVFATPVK

[2] = target: ATP synthase subunit alpha (Bacillus sp.) (UniProt P09219); assay: Binding affinity to Bacillus PS3 ATP synthase subunit alpha by mass spectroscopy
Sequence of ATP synthase subunit alpha (Bacillus sp.) (P09219 whole entry): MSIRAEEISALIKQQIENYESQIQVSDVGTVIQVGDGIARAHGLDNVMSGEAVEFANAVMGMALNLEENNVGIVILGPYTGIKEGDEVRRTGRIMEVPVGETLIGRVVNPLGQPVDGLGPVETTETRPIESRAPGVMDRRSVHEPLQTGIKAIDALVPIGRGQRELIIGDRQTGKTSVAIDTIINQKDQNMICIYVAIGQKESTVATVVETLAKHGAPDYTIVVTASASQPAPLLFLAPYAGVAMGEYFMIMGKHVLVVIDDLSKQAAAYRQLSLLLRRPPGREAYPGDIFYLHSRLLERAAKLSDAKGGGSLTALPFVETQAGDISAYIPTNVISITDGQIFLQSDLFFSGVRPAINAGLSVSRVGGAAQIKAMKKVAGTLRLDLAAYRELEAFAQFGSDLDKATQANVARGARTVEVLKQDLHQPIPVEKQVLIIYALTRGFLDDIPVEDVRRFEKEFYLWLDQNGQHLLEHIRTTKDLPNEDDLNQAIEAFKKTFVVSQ

[3] = system: Mycobacterium tuberculosis; assay: Antimicrobial activity against wild-type Mycobacterium tuberculosis expressing ATP synthase AtpE assessed as growth inhibition in early log-phase by 7H10 agar dilution method; format: functional, organism-based
[4] = target: ATP synthase subunit beta (Bacillus sp.) (UniProt P07677); assay: Binding affinity to Bacillus PS3 ATP synthase subunit beta by mass spectroscopy
Sequence of ATP synthase subunit beta (Bacillus sp.) (P07677 whole entry): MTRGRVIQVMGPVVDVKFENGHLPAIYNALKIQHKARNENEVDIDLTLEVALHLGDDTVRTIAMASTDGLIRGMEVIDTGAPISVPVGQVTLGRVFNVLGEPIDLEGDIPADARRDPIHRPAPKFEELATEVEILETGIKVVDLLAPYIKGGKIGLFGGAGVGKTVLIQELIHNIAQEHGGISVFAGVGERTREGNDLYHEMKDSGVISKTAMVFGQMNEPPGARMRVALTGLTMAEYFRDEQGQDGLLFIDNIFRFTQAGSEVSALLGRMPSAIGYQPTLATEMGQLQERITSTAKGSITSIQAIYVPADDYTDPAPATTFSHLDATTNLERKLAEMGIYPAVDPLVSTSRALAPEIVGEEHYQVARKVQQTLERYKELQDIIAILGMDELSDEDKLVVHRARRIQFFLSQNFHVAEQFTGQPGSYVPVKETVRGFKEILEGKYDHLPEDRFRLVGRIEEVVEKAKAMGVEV

[5] = system: Mycolicibacterium smegmatis; assay: Binding affinity to Mycobacterium smegmatis ATCC 607 ATP synthase subunit beta by mass spectroscopy
[6] = system: Mycolicibacterium smegmatis; assay: Binding affinity to Mycobacterium smegmatis ATCC 607 ATP synthase subunit alpha by mass spectroscopy
[7] = target: Putative uncharacterized protein atpE (Mycolicibacterium smegmatis, UniProt Q5TIX5); assay: Inhibition of Mycobacterium smegmatis ATCC 607 ATP synthase subunit c-mediated ATP synthesis after 60 mins by luminometry
Sequence of Putative uncharacterized protein atpE (Q5TIX5 whole entry): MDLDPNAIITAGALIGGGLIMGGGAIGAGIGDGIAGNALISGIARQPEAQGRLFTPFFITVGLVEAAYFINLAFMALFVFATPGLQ

[8] = system: Mycobacterium tuberculosis; assay: Antimicrobial activity against Mycobacterium tuberculosis by alamar blue assay; format: functional
[9] = system: Mycolicibacterium smegmatis; assay: Antimicrobial activity against Mycobacterium smegmatis ATCC 607 by alamar blue assay; format: functional
[10] = system: Mycolicibacterium smegmatis; assay: Antimicrobial activity against wild type Mycobacterium smegmatis ATCC 607 expressing vector pSD5 by 7H10 agar dilution method; format: functional
[11] = Binding affinity to Bacillus PS3 ATP synthase subunit c A63P mutant; parameters: species or system Bacillus sp. PS3
[12] = system: Mycolicibacterium smegmatis; assay: Antimicrobial activity against Mycobacterium smegmatis expressing ATP synthase AtpE D32V mutant protein by 7H9 agar dilution method; format: functional
[13] = system: Mycolicibacterium smegmatis; assay: Antimicrobial activity against Mycobacterium smegmatis ATCC 607 expressing ATP synthase AtpE subunit by 7H9 agar dilution method; format: functional
[14] = system: Mycolicibacterium smegmatis; assay: Antimicrobial activity against Mycobacterium smegmatis expressing ATP synthase AtpE D32V mutant protein by 7H10 agar dilution method; format: functional
[15] = system: Mycolicibacterium smegmatis; assay: Antimicrobial activity against Mycobacterium smegmatis isolate R09 expressing ATP synthase AtpE D32V mutant protein by 7H10 agar dilution method; format: functional
[16] = system: Mycobacterium tuberculosis; assay: Antimicrobial activity against Mycobacterium tuberculosis H37Rv by 7H9 broth dilution method; format: functional
[17] = system: Mycolicibacterium smegmatis; assay: Ratio of MIC for Mycobacterium smegmatis isolate R09 expressing ATP synthase AtpE D32V mutant protein to MIC for wild type Mycobacterium smegmatis; format: functional
[18] = system: Mycolicibacterium smegmatis; assay: Antimicrobial activity against wild-type Mycobacterium smegmatis ATCC 607 expressing ATP synthase AtpE subunit by 7H10 agar dilution method; format: functional
[19] = system: Mycolicibacterium smegmatis; assay: Antimicrobial activity against wild type Mycobacterium smegmatis ATCC 607 by 7H10 agar dilution method; format: functional
[20] = system: Mycolicibacterium smegmatis; assay: Antimicrobial activity against wild type Mycobacterium smegmatis ATCC 607 by 7H9 agar dilution method; format: functional
[21] = system: Mycolicibacterium smegmatis; assay: Ratio of MIC for Mycobacterium smegmatis expressing ATP synthase AtpE D32V mutant protein to MIC for wild type Mycobacterium smegmatis ATCC 607 expressing vector pSD5; format: functional
[22] = system: Mycobacterium tuberculosis; assay: Antimicrobial activity against Mycobacterium tuberculosis H37Rv by […] dilution method; format: functional
[23] = system: Mycolicibacterium smegmatis; assay: Antimicrobial activity against wild type Mycobacterium smegmatis ATCC 607 expressing vector pSD5 by 7H9 agar dilution method; format: functional
ATP synthase subunit c = ATP synthase subunit c (Bacillus sp., UniProt P00845); assay: Binding affinity to Bacillus PS3 ATP synthase subunit c; parameters: species or system Bacillus sp. PS3
Sequence of ATP synthase subunit c (P00845 whole entry): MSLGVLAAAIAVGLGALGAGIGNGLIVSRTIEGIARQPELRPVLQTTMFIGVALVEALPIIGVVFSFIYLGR

[24] = system: Mycolicibacterium smegmatis; assay: Antimicrobial activity against Mycobacterium smegmatis isolate R09 expressing ATP synthase AtpE D32V mutant protein by 7H9 agar dilution method; format: functional

COc1nc2ccc(Br)cc2cc1[C@@H](c1ccccc1)[C@@](O)(CCN(C)C)c1cccc2ccccc12
inhibition [1]: Dose-dependent effect
Activity [2]: Active
Activity [3]: Active
Activity [4]: Active
Activity [5]: Active
Activity [6]: Active

COc1nc2ccc(Br)cc2cc1[C@H](c1ccccc1)[C@@](O)(CCN(C)C)c1cccc2ccccc12 (racemic; 1c)
IC50 [7]: 750 nM
MIC90 [8]: 44 µg/mL (≈ 79.2 µM)
MIC90 [9]: 7 µg/mL (≈ 12.6 µM)

COc1nc2ccc(Br)cc2cc1[C@H](c1ccccc1)[C@@](O)(CCN(C)C)c1cccc2ccccc12 (racemic; 1d)
MIC90 [8]: 1.8 µg/mL (≈ 3.24 µM)
MIC90 [9]: 0.08 µg/mL (≈ 0.144 µM)

COc1nc2ccc(Br)cc2cc1[C@@H](c1ccccc1)[C@@](O)(CCN(C)C)c1cccc2ccccc12 (single isomer, unassigned) [BEDAQUILINE]
IC50 [7]: 25 nM
MIC90 [8]: 8.8 µg/mL (≈ 15.8 µM)
MIC90 [9]: 0.35 µg/mL (≈ 0.63 µM)

COc1nc2ccc(Br)cc2cc1[C@@H](c1ccccc1)[C@@](O)(CCN(C)C)c1cccc2ccccc12 [BEDAQUILINE]
IC50 [7]: 2.5 nM
MIC [10]: 0.003 µg/mL (≈ 0.0054 µM)
Kd [11]: 1500 nM
MIC [12]: 0.5 µg/mL (≈ 0.9 µM)
MIC [13]: 0.003 µg/mL (≈ 0.0054 µM)
MIC90 [8]: 0.06 µg/mL (≈ 0.108 µM)
MIC90 [9]: 0.004 µg/mL (≈ 0.0072 µM)
MIC [14]: 0.4 µg/mL (≈ 0.72 µM)
MIC [15]: 0.7 µg/mL (≈ 1.26 µM)
MIC [16]: 0.03 µg/mL (≈ 0.054 µM)
Ratio [17]: >100
MIC [18]: 0.003 µg/mL (≈ 0.0054 µM)
MIC [19]: 0.003 µg/mL (≈ 0.0054 µM)
MIC [20]: 0.003 µg/mL (≈ 0.0054 µM)
Ratio [21]: >100
MIC [22]: 0.05 µg/mL (≈ 0.09 µM)
MIC [23]: 0.003 µg/mL (≈ 0.0054 µM)
Kd (ATP synthase subunit c): 500 nM
MIC [24]: 0.6 µg/mL (≈ 1.08 µM)

CO[C@H]1/C=C/O[C@@]2(C)Oc3c(C)c(O)c4c(O)c(c(/C=N/N5CCN(C)CC5)c(O)c4c3C2=O)NC(=O)/C(C)=C\C=C\[C@H](C)[C@H](O)[C@@H](C)[C@@H](O)[C@@H](C)[C@H](OC(C)=O)[C@@H]1C [RIFAMPIN]
MIC90 ([8]; Mycobacterium tuberculosis, read-out: MIC90): 0.13 µg/mL (≈ 0.158 µM)
MIC90 ([9]; Mycolicibacterium smegmatis, ATCC 607, read-out: MIC90): 8.2 µg/mL (≈ 9.96 µM)
